Test results reported in US20230330045A1 (priority 2020, published 2023).
Where two headings read alike, the source gives them in different places.

How the values were obtained:
[1] = target: CB2 (h) (Homo sapiens, UniProt P34972); assay: SafetyScreen44 binding assay CB2 (h); details: agonist radioligand, read-out: % Inhibition of Specific Control Binding
From the text: (§1) This panel included 38 binding assays and six functional assays of well-established targets and pathways that lead to off-target adverse drug reactions.

[2] = target: CB1 (h) (Homo sapiens, UniProt P21554); assay: SafetyScreen44 binding assay CB1 (h); details: agonist radioligand, read-out: % Inhibition of Specific Control Binding
From the text: as §1

[3] = target: Lck kinase (h) (Homo sapiens, UniProt P06239); assay: SafetyScreen44 enzyme assay Lck kinase (h); assay type: biochemical; details: read-out: % Inhibition of Control Values
Lck kinase (h), sequence (P06239 whole entry): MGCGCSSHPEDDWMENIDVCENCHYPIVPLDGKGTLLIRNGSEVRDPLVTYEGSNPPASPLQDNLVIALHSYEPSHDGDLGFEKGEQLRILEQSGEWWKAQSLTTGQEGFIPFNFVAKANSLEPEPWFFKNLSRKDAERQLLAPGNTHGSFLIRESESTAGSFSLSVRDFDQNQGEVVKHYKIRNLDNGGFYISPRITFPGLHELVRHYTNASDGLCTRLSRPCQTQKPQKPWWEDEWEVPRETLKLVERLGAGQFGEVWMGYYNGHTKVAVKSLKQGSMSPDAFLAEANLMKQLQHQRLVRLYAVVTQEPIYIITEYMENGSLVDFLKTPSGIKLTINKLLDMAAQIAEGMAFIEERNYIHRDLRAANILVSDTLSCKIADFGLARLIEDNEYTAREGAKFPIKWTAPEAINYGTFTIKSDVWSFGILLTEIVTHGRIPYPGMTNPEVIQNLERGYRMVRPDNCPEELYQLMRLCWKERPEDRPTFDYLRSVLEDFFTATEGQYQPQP
From the text: as §1

[4] = target: beta 1 (h) (Homo sapiens, UniProt P08588); assay: SafetyScreen44 binding assay beta 1 (h); details: agonist radioligand, read-out: % Inhibition of Specific Control Binding
From the text: as §1

[5] = target: M3 (h) (Homo sapiens, UniProt P20309); assay: SafetyScreen44 binding assay M3 (h); details: antagonist radioligand, read-out: % Inhibition of Specific Control Binding
M3 (h), sequence (P20309 whole entry): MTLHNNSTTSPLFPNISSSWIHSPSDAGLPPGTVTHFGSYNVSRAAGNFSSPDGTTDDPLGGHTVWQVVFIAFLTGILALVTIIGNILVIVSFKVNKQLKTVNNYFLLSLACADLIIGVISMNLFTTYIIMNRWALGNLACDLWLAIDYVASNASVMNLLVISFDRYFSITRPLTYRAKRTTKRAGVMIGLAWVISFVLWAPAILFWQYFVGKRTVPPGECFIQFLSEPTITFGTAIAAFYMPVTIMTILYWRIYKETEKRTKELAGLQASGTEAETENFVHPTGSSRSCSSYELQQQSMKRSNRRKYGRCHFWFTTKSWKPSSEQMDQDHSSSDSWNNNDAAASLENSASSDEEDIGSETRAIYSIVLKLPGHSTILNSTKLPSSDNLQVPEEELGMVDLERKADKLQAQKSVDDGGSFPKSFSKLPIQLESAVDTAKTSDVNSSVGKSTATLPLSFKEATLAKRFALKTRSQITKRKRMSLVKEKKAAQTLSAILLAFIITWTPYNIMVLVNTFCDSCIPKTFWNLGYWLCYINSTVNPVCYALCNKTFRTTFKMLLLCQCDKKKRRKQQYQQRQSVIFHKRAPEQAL
From the text: as §1

[6] = target: acetylcholinesterase (h) (Homo sapiens, UniProt P22303); assay: SafetyScreen44 enzyme assay acetylcholinesterase (h); assay type: biochemical; details: at 1 μM
acetylcholinesterase (h), sequence (P22303 32-614): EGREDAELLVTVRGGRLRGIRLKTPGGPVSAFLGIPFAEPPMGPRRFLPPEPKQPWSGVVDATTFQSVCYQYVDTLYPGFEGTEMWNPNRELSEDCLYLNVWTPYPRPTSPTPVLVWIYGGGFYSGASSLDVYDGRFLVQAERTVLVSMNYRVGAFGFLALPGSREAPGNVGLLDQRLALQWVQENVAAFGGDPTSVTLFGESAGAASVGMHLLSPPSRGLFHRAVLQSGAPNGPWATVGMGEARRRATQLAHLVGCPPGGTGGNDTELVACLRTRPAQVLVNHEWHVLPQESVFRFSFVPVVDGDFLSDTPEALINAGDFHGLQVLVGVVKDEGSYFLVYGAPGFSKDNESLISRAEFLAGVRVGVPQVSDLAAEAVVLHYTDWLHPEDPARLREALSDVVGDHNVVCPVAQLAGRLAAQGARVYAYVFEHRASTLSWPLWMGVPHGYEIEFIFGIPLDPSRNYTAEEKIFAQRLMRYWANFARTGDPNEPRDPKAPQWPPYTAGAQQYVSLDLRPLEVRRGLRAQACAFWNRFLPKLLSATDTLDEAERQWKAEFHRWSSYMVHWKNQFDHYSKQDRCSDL
From the text: as §1

[7] = target: alpha 2A (h) (Homo sapiens, UniProt P08913); assay: SafetyScreen44 binding assay alpha 2A (h); details: antagonist radioligand, read-out: % Inhibition of Specific Control Binding
alpha 2A (h), sequence (P08913 whole entry): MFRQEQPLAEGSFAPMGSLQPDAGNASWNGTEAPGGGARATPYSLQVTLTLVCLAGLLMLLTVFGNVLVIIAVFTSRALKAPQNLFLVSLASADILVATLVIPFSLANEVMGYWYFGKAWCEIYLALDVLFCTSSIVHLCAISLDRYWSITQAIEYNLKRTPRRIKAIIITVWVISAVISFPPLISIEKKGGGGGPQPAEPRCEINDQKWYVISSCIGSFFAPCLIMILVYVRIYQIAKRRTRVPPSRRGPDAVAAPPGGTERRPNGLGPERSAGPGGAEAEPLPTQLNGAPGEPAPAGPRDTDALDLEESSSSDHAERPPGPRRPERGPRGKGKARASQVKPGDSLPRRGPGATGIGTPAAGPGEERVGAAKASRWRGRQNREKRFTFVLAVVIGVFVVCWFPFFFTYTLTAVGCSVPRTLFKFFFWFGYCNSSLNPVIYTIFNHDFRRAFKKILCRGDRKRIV
From the text: as §1

[8] = system: KV channel; assay: SafetyScreen44 binding assay KV channel; details: at 1 μM; antagonist radioligand
From the text: as §1

[9] = system: Na+ channel (site 2); assay: SafetyScreen44 binding assay Na+ channel (site 2); details: at 1 μM; antagonist radioligand
From the text: as §1

[10] = target: human butyrylcholinesterase (BuChE) (Homo sapiens, UniProt P06276); assay: Human BuChE colorimetric activity kit assay; assay type: biochemical
human butyrylcholinesterase (BuChE), sequence (P06276 29-602): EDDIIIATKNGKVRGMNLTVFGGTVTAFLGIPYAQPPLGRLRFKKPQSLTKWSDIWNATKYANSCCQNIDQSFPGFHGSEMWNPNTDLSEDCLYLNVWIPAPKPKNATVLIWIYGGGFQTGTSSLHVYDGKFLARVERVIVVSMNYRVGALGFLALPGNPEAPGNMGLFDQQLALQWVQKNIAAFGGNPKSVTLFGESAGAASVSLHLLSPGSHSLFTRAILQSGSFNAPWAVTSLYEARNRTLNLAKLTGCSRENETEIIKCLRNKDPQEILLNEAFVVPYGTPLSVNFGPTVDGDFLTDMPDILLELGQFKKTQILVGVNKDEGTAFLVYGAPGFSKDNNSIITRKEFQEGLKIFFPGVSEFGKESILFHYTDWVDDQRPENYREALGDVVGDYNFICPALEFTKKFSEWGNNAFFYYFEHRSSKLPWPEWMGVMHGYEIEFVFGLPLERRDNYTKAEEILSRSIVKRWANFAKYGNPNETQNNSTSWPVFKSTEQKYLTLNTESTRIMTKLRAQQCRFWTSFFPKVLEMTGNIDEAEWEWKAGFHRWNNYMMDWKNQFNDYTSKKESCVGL
Protocol: Reactions were performed in 384-well plates (781162, Greiner BioOne, GmbH, Kremsmunster, Austria) with 1% DMSO, according to the manufacturer's instructions with a few modifications. Compounds were incubated with enzyme for 30 minutes at room temperature before addition of substrate. Total volume of the reaction was 100 μL, we use 5 μL enzyme and kinetic reactions were performed at 30° C. for 60 minutes using a microplate reader sold under the tradename SPECTRAMAX™ iD5 (Molecular Devices, San Jose, California, United States of America) and an absorbance of 412 nm. Percent activity was calculated by calculating the slope of each reaction as stated above and comparing the positive control (PC) to sample (S): % Relative activity=SlopeS/SlopePCx100. We evaluated if assay reagents could interfere with the absorbance by adding compound or DMSO to a 150 μM solution of 5-thio-2-nitrobenzoic acid and measuring at […].

[11] = target: PDE4D2 (h) (Homo sapiens, UniProt Q08499); assay: SafetyScreen44 enzyme assay PDE4D2 (h); assay type: biochemical; details: read-out: % Inhibition of Control Values
From the text: as §1

[12] = system: Ca2+ channel (L, dihydropyridine site); assay: SafetyScreen44 binding assay Ca2+ channel (L, dihydropyridine site); details: at 1 μM; antagonist radioligand
From the text: as §1

[13] = target: 5-HT2B (h) (Homo sapiens, UniProt P41595); assay: SafetyScreen44 binding assay 5-HT2B (h); details: agonist radioligand, read-out: % Inhibition of Specific Control Binding
From the text: as §1

[14] = target: 5-HT3 (h) (Homo sapiens, UniProt P46098); assay: SafetyScreen44 binding assay 5-HT3 (h); details: antagonist radioligand, read-out: % Inhibition of Specific Control Binding
From the text: as §1

[15] = target: human AChE (Homo sapiens, UniProt P22303); assay type: biochemical
human AChE, sequence (P22303 32-614): as the sequence (P22303 32-614) above

[16] = target: alpha 1A (h) (Homo sapiens, UniProt P35348); assay: SafetyScreen44 binding assay alpha 1A (h); details: antagonist radioligand, read-out: % Inhibition of Specific Control Binding
From the text: as §1

[17] = target: H1 (h) (Homo sapiens, UniProt P35367); assay: SafetyScreen44 binding assay H1 (h); details: antagonist radioligand, read-out: % Inhibition of Specific Control Binding
H1 (h), sequence (P35367 whole entry): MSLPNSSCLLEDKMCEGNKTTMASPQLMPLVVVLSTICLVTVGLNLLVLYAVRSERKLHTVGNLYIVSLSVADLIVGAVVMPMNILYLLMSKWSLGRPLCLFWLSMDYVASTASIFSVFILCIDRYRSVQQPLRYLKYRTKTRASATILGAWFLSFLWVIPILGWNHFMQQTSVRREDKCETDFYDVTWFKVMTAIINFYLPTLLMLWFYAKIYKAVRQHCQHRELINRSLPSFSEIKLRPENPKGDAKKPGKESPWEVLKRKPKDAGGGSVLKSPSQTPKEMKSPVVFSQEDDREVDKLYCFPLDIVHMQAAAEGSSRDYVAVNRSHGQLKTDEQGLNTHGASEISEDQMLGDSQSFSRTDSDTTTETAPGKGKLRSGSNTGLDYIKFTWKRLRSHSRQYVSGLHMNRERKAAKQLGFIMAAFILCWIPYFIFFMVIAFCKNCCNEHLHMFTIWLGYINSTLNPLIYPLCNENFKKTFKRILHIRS
From the text: as §1

[18] = target: D2S (h) (Homo sapiens, UniProt P14416); assay: SafetyScreen44 binding assay D2S (h); details: agonist radioligand, read-out: % Inhibition of Specific Control Binding
From the text: as §1

[19] = target: norepinephrine transporter (h) (Homo sapiens, UniProt P23975); assay: SafetyScreen44 binding assay norepinephrine transporter (h); details: antagonist radioligand, read-out: % Inhibition of Specific Control Binding
norepinephrine transporter (h), sequence (P23975 whole entry): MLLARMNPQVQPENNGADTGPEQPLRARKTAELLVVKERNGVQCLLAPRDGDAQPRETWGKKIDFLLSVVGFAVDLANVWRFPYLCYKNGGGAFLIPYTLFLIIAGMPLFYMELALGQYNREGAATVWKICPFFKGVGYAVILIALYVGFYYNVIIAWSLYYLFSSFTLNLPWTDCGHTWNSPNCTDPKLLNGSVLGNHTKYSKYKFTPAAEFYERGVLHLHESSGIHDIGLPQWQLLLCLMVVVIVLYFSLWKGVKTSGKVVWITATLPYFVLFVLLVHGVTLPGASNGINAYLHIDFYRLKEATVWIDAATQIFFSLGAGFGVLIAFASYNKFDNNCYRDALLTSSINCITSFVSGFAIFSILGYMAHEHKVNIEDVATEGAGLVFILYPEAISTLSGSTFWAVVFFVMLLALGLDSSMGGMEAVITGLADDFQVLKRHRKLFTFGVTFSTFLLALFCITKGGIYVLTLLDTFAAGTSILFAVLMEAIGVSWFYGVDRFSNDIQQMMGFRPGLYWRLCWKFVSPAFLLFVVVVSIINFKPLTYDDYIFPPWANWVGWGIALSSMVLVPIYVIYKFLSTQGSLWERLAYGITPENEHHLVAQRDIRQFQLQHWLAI
From the text: as §1

[20] = target: 5-HT1B (h) (Homo sapiens, UniProt P28222); assay: SafetyScreen44 binding assay 5-HT1B (h); details: antagonist radioligand, read-out: % Inhibition of Specific Control Binding
From the text: as §1

[21] = target: 5-HT1A (h) (Homo sapiens, UniProt P08908); assay: SafetyScreen44 binding assay 5-HT1A (h); details: agonist radioligand, read-out: % Inhibition of Specific Control Binding
5-HT1A (h), sequence (P08908 whole entry): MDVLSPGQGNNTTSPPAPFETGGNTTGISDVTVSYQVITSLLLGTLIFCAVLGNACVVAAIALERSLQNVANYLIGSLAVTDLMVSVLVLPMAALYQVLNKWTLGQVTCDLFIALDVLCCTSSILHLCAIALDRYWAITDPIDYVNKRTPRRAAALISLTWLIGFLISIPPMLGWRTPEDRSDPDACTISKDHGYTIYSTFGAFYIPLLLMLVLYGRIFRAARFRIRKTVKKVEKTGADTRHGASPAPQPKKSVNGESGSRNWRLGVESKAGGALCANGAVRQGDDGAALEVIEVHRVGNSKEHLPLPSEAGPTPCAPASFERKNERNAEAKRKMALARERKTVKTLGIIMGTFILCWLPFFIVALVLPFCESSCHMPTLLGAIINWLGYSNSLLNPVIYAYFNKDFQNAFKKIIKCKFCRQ
From the text: as §1

[22] = target: 5-HT transporter (h) (Homo sapiens, UniProt P31645); assay: SafetyScreen44 binding assay 5-HT transporter (h); details: antagonist radioligand, read-out: % Inhibition of Specific Control Binding
5-HT transporter (h), sequence (P31645 whole entry): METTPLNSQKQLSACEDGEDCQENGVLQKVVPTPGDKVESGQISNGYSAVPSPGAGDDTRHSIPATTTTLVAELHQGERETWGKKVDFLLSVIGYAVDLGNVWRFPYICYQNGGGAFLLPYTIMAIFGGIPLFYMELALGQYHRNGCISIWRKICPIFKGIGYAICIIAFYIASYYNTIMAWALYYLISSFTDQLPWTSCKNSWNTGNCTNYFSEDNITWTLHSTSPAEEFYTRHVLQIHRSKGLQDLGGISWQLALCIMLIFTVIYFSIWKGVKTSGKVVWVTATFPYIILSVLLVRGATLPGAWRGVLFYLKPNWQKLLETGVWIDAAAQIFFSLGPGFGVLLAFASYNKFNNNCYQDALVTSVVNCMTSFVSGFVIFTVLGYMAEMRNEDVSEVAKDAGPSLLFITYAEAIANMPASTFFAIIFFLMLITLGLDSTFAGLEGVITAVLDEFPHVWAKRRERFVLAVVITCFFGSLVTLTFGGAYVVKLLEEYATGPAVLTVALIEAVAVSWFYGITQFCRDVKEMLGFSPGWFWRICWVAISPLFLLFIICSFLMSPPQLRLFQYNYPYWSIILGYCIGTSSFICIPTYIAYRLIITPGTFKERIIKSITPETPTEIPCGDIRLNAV
From the text: as §1

[23] = target: MAO-A (Rattus norvegicus, UniProt P21396); assay: SafetyScreen44 binding assay MAO-A; details: antagonist radioligand, read-out: % Inhibition of Specific Control Binding
From the text: as §1

[24] = target: PDE3A (h) (Homo sapiens, UniProt Q14432); assay: SafetyScreen44 enzyme assay PDE3A (h); assay type: biochemical; details: read-out: % Inhibition of Control Values
From the text: as §1

[25] = target: delta (DOP) (h) (Homo sapiens, UniProt P41143); assay: SafetyScreen44 binding assay delta (DOP) (h); details: agonist radioligand, read-out: % Inhibition of Specific Control Binding
From the text: as §1

[26] = target: A2A (h) (Homo sapiens, UniProt P29274); assay: SafetyScreen44 binding assay A2A (h); details: agonist radioligand, read-out: % Inhibition of Specific Control Binding
From the text: as §1

SMILES: CCN(CC)CCOc1ccc2c(c1)C(=O)c1cc(OCCN(CC)CC)ccc1-2 [tilorone]
- inhibition at 1 µM [1]: -16%
- inhibition at 1 µM [2]: 0%
- inhibition at 1 µM [3]: 13%
- inhibition at 1 µM [4]: 5%
- inhibition at 1 µM [5]: 17%
- % Inhibition of Control Values [6]: 92%
- inhibition at 1 µM [7]: 0%
- % Inhibition of Specific Control Binding [8]: 0%
- % Inhibition of Specific Control Binding [9]: 1%
- IC50 [10]: > 50 nM
- inhibition at 100 µM ([10]; at 100 μM, single point, read-out: inhibition of human BChE): 50%
- inhibition at 1 µM [11]: -15%
- % Inhibition of Specific Control Binding [12]: 4%
- inhibition at 1 µM [13]: -9%
- inhibition at 1 µM [14]: 6%
- IC50 ([15]; average of the colorimetric and Eurofins values, read-out: average IC50 for human AChE): 64.6 nM
- IC50 ([15]; colorimetric kit, n=2, read-out: IC50 against human AChE (colorimetric assay)): 73.3 nM
- Hill slope, human AChE colorimetric dose-response ([15]; two-fold 16-point dilution from 20 μM): 0.84
- inhibition at 1 µM [16]: 26%
- inhibition at 1 µM [17]: -6%
- inhibition at 1 µM [18]: 1%
- inhibition at 1 µM [19]: 14%
- inhibition at 1 µM [20]: 21%
- inhibition at 1 µM [21]: 12%
- inhibition at 1 µM [22]: 44%
- inhibition at 1 µM [23]: 3%
- inhibition at 1 µM [24]: 2%
- inhibition at 1 µM [25]: 0%
- inhibition at 1 µM [26]: -4%
